Assay results taken from paper PMC9066070, “RGI‐GOLVEN signaling promotes cell surface immune receptor abundance to regulate plant immunity” (EMBO Reports, 2022).
“Also recorded” adds a separate entry of the source. Non-standard residues stand in square brackets, D forms with d. Residues, ends and D or L forms follow the SMILES beside them. No end group written: not given here. *: point of attachment. SO3H = sulfated tyrosine (TyrSO3H2), O=S(=O)(O)*; Hyp = O=C(O)[C@@H]1C[C@@H](O)CN1; Cbz = O=C(OCc1ccccc1)*

What was measured:
FLS2 transcription = tested on: FLS2 transcription; design: method as in Flury et al, 2013; Tintor et al, 2013; Hou et al, 2014; conditions: ref Flury et al, 2013, Tintor et al, Hou et al, 2014; cited from earlier work
26S proteasome = experiment: FLS2 accumulation in rgi5x after MG132 treatment, western blot; format: in vivo, Arabidopsis thaliana; conditions: rgi5x seedlings, 50 μM MG132, 1 h
Protocol: Figure 6 GLV2 perception by RGIs promotes maximal FLS2 abundance independent of transcription • Twelve‐day‐old WT or 35S::GLV2 8‐5 seedlings were treated with mock or 1 μM GLV2 for 24 h before protein extraction. Western blots were probed with α‐FLS2 or α‐BAK1 antibodies. CBB: Coomassie brilliant blue. • Quantitative real‐time PCR of FLS2 transcripts from 12‐day‐old seedlings treated with mock or 1 μM GLV2 for the indicated time, n = 3 biological replicates. UBQ was used as a house keeping gene. […] Western blot was probed with α‐FLS2 antibodies. • Protein extraction was performed from 12‐day‐old seedlings after 1 h treatment with mock or 50 μM MG132. Western blots were probed with α‐FLS2 antibodies. Data information: Similar results were obtained in three independent experiments. Source data are available online for this figure.

PRR-BAK1 complex = conditions: ref Stegmann et al, 2017; cited from earlier work
Text: FER controls FLS2-BAK1 and EFR-BAK1 complex formation independent of protein accumulation ([…] et al, [2017]). In contrast to GLV2 treatment, the FER ligand RALF23 inhibits PRR-BAK1 complex formation. […] Whether GLV2's promotion of PRR complex formation and the regulation of PRR ...

[1] = target: T1, ectodomain of RGI3 with C-terminal Strep II-9x His tag (RGI3^ECD-Strep II-9x His) (Arabidopsis thaliana, UniProt C0LGR3 25-703, fluorescent dye by Monolith Protein Labeling Kit RED-tris-NTA Second Generation (His-tag reactive)); conditions: both partners purified
T1 construct: It was cloned into the baculovirus transfer vector pMeIBac B1 for secreted expression; not shown: Strep II-9x His, C-terminal, kept
T1 sequence (looked up): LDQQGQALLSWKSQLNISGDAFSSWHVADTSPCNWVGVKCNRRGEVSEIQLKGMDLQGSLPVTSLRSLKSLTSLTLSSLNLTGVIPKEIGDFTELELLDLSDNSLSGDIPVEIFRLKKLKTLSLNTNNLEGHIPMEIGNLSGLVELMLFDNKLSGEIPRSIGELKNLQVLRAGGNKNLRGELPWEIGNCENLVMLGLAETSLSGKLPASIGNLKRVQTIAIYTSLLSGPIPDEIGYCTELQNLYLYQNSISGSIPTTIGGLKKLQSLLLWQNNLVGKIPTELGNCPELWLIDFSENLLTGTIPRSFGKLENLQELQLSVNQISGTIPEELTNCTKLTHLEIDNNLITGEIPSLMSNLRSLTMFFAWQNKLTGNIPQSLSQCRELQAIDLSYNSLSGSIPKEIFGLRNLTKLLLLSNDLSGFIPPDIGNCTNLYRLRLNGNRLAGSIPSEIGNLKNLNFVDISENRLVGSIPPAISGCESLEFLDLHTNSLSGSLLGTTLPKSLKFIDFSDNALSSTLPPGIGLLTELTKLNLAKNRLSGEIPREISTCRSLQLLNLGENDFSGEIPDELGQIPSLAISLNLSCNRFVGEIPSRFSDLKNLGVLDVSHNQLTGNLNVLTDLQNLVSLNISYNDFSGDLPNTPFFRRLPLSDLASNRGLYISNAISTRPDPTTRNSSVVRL

PIP1: PATHOGEN-ASSOCIATED MOLECULAR PATTERN (PAMP)-INDUCED PEPTIDE perceived by RLK7 (GRVLTEKSGDGSATMTVEKMKSTVDSWFQRLASGPSPRGRGH; PAMP-induced secreted peptide 1; UniProt Q1PE40 31-72, looked up)
FLS2 transcription (FLS2 transcription): upregulation of FLS2 transcription

CC(C)C[C@@H](C=O)NC(=O)[C@H](CC(C)C)NC(=O)[C@H](CC(C)C)NC(=O)OCc1ccccc1 [MG132] (Cbz-Leu-Leu-Leu-aldehyde)
FLS2 accumulation defect of rgi5x (26S proteasome): partial restoration; also recorded: partially rescued

RALF23: FER ligand; RAPID ALKALINIZATION FACTOR peptide (ATRRYISYGALRRNTIPCSRRGASYYNCRRGAQANPYSRGCSAITRCRRS; Protein RALF-like 23; UniProt Q9LUS7 89-138, looked up)
PRR-BAK1 complex formation (PRR-BAK1 complex): inhibits PRR‐BAK1 complex formation

B1: GOLVEN2 (GLV2) peptide, tyrosine-sulfated (peptide)
peptide: DMDY(SO3H)NSANKKR[Hyp]IHN
notes: mature GLV2 peptide cut from the GLV2 precursor, Arabidopsis thaliana; also called synthetic GLV2; source: synthetic peptide (Pepmic, Suzhou, China; purity minimum 90%)
Kd [1]: 11.8 nM

B2: GLV2 peptide without sulfated tyrosine (GLV2^-S) (peptide)
peptide: DMDYNSANKKRPIHN
modifications: without sulfated tyrosine
notes: mature GLV2 peptide cut from the GLV2 precursor, Arabidopsis thaliana, tyrosine not sulfated; also called GLV^-S; source: synthetic peptide (Pepmic, Suzhou, China; purity minimum 90%)
Kd [1]: 129 nM
